Results taken from EP0369881A1, “Compounds derived from the 3-keto-delta 4,9-19-nor steroid structure, and their use as medicaments” (ROUSSEL-UCLAF, priority 1988, dated 1990).

Columns and labels:
[1] = target: T1, Récepteur progestogène de l'utérus de lapine (Oryctolagus cuniculus, UniProt P06186); experiment: Relative binding affinity, competition with tritiated Product R, rabbit uterus cytosol; settings: reference hormone progestérone
T1 construct: les utérus sont prélevés, pesés et homogénéisés à 0°C; from tissue; host or cells: uterus cytosol (105 000 g supernatant) of estradiol-primed immature female rabbits
T1 sequence (P06186 1-930): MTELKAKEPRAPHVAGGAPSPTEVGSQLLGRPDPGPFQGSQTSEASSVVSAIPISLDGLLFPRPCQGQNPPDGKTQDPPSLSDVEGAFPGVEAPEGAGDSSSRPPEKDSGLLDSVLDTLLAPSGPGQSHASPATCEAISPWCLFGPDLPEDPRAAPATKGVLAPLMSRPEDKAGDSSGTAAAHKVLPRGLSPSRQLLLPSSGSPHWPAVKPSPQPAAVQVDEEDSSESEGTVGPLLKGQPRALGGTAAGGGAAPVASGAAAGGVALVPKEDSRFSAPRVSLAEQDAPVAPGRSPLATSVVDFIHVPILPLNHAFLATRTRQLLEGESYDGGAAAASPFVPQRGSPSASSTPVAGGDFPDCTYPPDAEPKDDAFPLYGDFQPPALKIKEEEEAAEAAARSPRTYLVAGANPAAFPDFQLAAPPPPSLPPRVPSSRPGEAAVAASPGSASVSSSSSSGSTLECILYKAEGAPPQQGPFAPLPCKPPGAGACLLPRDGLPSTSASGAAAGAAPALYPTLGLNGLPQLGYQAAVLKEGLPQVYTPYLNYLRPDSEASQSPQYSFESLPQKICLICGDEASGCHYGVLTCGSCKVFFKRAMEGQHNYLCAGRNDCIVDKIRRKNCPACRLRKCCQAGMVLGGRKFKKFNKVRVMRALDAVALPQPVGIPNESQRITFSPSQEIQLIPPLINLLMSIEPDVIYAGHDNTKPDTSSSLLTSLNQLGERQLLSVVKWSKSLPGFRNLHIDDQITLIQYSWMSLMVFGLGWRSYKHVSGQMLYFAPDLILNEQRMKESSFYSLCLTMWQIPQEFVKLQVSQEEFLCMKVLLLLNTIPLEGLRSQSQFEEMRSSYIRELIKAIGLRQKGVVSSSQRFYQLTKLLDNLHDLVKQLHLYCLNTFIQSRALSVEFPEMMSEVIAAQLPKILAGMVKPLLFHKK
Description: Récepteur progestogène de l'utérus de lapine :
Des lapines impubères d'environ 1 kg reçoivent une application cutanée de 25 microgrammes d'estradiol. 5 jours après ce traitement, les animaux sont sacrifiés, les utérus sont prélevés, pesés et homogénéisés à 0°C, à l'aide d'un Potter teflon-verre dans une solution tamponnée TS (Tris 10mM, saccharose 0,25 M, HCl pH 7,4) (1 g de tissu pour 50 ml de TS). L'homogénat est ensuite ultracentrifugé (105 000 g x 90 mn) à 0°C. Des aliquotes du surnageant ainsi obtenu, sont incubées à 0°C pendant un temps t, avec une concentration constante (T) de Produit R tritié (17,21-diméthyl 19-nor 4,9-pregnadiène-3,20-dione) en présence de concentrations croissantes (0 - 2 500. 10⁻⁹M) soit de R froid, soit de progestérone froide, soit du produit froid à tester. La concentration de R tritié lié (B) est ensuite mesurée dans chaque incubat par la technique d'adsorption au charbon dextran.
(§1) Calcul de l'affinité relative de liaison:
(§2) Le calcul de l'affinité relative de liaison (ARL) est identique pour tous les récepteurs.
(§3) On trace les 2 courbes suivantes : le pourcentage de l'hormone tritiée liée (B)/(T) [formula] en fonction du logarithme de la concentration de l'hormone de référence froide et (B)/(T) [formula] en en fonction du logarithme de la concentration du produit froid testé.
(§4) On détermine la droite d'équation I₅₀ = ( (B)/(T) [formula] max + (B)/(T) [formula] min)/2. (B)/(T) [formula] max = Pourcentage de l'hormone tritiée liée pour une incubation de cette hormone tritiée à la concentration (T). (B)/(T) [formula] min = Pourcentage de l'hormone tritiée liée pour une incubation de cette hormone tritiée à la concentration (T) en présence d'un grand excès d'hormone froide (2500.10⁻⁹M).
(§5) Les intersections de la droite I₅₀ et des courbes permettent d'évaluer les concentrations de l'hormone de référence froide (CH) et du produit froid testé (CX) qui inhibent de 50% la liaison de l'hormone tritiée sur le récepteur.
(§6) L'affinité relative de liaison (ARL) du produit testé est déterminée par l'équation [formula]

[2] = target: T2, Récepteur glucocorticoïde du thymus de rat (Rattus norvegicus, UniProt P06536); experiment: Relative binding affinity, competition with tritiated dexamethasone, rat thymus cytosol; settings: reference hormone dexaméthasone
T2 construct: les thymus sont prélevés et homogénéisés à 0°C; from tissue; host or cells: thymus cytosol (105 000 g supernatant) of adrenalectomised male Sprague Dawley rats
T2 sequence (P06536 1-795): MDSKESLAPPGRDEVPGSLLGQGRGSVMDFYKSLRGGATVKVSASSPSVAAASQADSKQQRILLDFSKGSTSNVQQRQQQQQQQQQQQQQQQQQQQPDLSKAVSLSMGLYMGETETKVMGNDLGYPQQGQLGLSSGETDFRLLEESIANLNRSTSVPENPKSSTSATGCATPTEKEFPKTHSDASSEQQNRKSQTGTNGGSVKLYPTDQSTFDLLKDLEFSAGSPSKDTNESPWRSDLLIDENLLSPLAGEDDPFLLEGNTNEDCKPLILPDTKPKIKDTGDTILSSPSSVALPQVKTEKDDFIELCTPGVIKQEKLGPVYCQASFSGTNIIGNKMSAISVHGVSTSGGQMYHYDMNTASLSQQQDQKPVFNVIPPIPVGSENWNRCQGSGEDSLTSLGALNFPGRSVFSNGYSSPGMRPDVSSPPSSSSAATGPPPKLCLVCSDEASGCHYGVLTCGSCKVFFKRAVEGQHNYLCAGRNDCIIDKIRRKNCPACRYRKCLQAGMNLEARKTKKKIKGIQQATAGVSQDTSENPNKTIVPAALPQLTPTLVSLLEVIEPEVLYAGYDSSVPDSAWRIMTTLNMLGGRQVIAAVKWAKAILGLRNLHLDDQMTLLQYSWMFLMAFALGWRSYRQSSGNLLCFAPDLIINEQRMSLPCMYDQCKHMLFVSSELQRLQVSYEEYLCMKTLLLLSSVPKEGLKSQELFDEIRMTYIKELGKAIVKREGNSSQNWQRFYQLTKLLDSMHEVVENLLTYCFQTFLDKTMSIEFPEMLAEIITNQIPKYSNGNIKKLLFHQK
Description: Récepteur glucocorticoïde du thymus de rat :
Des rats mâles Sprague Dawley EOPS de 160 à 200 g sont surrénalectomisés. 4 à 8 jours après cette ablation, les animaux sont sacrifiés, et les thymus sont prélevés et homogénéisés à 0°C dans un tampon Tris 10mM, saccharose 0,25M, dithiothreitol 2mM, HCl pH 7,4, à l'aide d'un Potter polyté-trafluoroéthylène-verre (1 g de tissu pour 10 ml de TS). L'homogénat est ensuite ultracentrifugé (105 000 g x 90 mn) à 0°C. Des aliquotes du surnageant ainsi obtenu, sont incubées à 0°C pendant un temps (t) avec une concentration constante (T) de dexaméthasone tritiée en présence de concentrations croissantes (O - 2 500.10⁻⁹M) soit de dexaméthasone froide, soit du produit froid à tester. La concentration de la dexaméthasone tritiée liée (B) est ensuite mesurée dans chaque incubat par la technique d'adsorption au charbon dextran.
as §1, §2, §3, §4, §5, §6

SMILES: CSc1ccc([C@H]2C[C@@]3(C)[C@@H](CC[C@@]3(O)C#CCO)[C@@H]3CCC4=CC(=O)CCC4=C32)cc1 [Exemple 1, 17béta-hydroxy 17alpha-(3-hydroxy 1-propynyl) 11béta-[4-(méthylthio)phényl] estra-4,9-dien-3-one]
- affinité relative de liaison (ARL) Progestogène ([1]; incubation 2H at 0°C): 72
- affinité relative de liaison (ARL) Progestogène ([1]; incubation 24H at 0°C): 86
- affinité relative de liaison (ARL) Glucocorticoïde ([2]; incubation 1H at 0°C): 133
- affinité relative de liaison (ARL) Glucocorticoïde ([2]; incubation 24H at 0°C): 99

SMILES: CSc1ccc([C@H]2C[C@@]3(C)[C@@H](CC[C@@]3(O)C#CCF)[C@@H]3CCC4=CC(=O)CCC4=C32)cc1 [Exemple 3, 17alpha-(3-fluoro 1-propynyl) 17béta-hydroxy 11béta-[4-(méthylthio)phényl] estra-4,9-dièn-3-one]
- affinité relative de liaison (ARL) Progestogène ([1]; incubation 2H at 0°C): 55
- affinité relative de liaison (ARL) Progestogène ([1]; incubation 24H at 0°C): 225
- affinité relative de liaison (ARL) Glucocorticoïde ([2]; incubation 1H at 0°C): 142
- affinité relative de liaison (ARL) Glucocorticoïde ([2]; incubation 24H at 0°C): 169

SMILES: CSc1ccc([C@H]2C[C@@]3(C)[C@@H](CC[C@@]3(O)C#CCCl)[C@@H]3CCC4=CC(=O)CCC4=C32)cc1 [Exemple 4, 17alpha-(3-chloro 1-propynyl) 17béta-hydroxy 11béta-[4-(méthylthio)phényl] estra-4,9-dièn-3-one]
- affinité relative de liaison (ARL) Progestogène ([1]; incubation 2H at 0°C): 70
- affinité relative de liaison (ARL) Progestogène ([1]; incubation 24H at 0°C): 351
- affinité relative de liaison (ARL) Glucocorticoïde ([2]; incubation 1H at 0°C): 156
- affinité relative de liaison (ARL) Glucocorticoïde ([2]; incubation 24H at 0°C): 139
